Results taken from US20240062782A1, “NONLINEAR LIGHT ABSORPTION MATERIAL, RECORDING MEDIUM, METHOD FOR RECORDING INFORMATION, AND METHOD FOR READING INFORMATION” (Panasonic Intellectual Property Management Co., Ltd., priority 2021, published 2024).
Read-outs that look alike come from different tables or passages of the source.

Tests used:
Type in all cases: physicochemical
[1] = Measurement of two-photon absorption cross-section by the Z-scan method, light of 405 nm; settings: light of wavelength 405 nm; for Two-photon absorption cross-section σ: titanium sapphire pulsed laser second harmonic, 80 fs, 1 kHz
Text: The two-photon absorption cross-section of the compound A for light having a wavelength of 405 nm may be higher than 1 GM or 10 GM or more. The upper limit of the two-photon absorption cross-section of the compound A is not particularly limited and is, for example, 1000 GM. The two-photon absorption cross-section can be measured by, for example, the Z-scan method described in J. Opt. Soc. Am. B, 2003, Vol. 20, p. 529. The Z-scan method is broadly used as a method for measuring a nonlinear optical constant. In the Z-scan method, a measurement sample is moved along the irradiation direction of a laser beam near the focal point where the beam is focused. On this occasion, the change in the amount of light permeated through the measurement sample is recorded. In the Z-scan method, the power density of incident light changes depending on the position of the measurement sample. Accordingly, when the measurement sample performs nonlinear light absorption, if the measurement sample is located near the focal point of the laser beam, the amount of the transmitted light is attenuated. The two-photon absorption cross-section can be calculated by fitting the change of the amount of transmitted light to a theoretical curve predicted by the intensity of incident light, the thickness of the measurement sample, the concentration of the compound A in the measurement sample, and so on.
The compounds of Examples and Comparative Examples were measured for the two-photon absorption cross-section for light having a wavelength of 405 nm. The measurement of the two-photon absorption cross-section was performed using the Z-scan method described in J. Opt. Soc. Am. B, 2003, Vol. 20, p. 529. As the light source for measuring the two-photon absorption cross-section, a titanium sapphire pulsed laser was used. Specifically, each sample was irradiated with the second harmonic of the titanium sapphire pulsed laser. The pulse width of the laser was 80 fs. The repetition frequency of the laser was 1 kHz. The average power of the laser was changed within a range of 0.01 mW or more and 0.08 mW or less. The light from the laser was light having a wavelength of 405 nm. […] As described above, the two-photon absorption cross-sections of the compounds of Examples 1 and 2 and the compounds of Comparative Examples 1 and 4 to 6 were measured.

[2] = Measurement of molar absorption coefficient at 405 nm (JIS K0115:2004); settings: wavelength 405 nm; compound concentration 100 to 500 mmol/L in solvent
Text: The molar absorption coefficient of the compound A for light having a wavelength of 405 nm may be 100 mol^−1·L·cm^−1 or less, 10 mol^−1·L·cm^−1 or less, 1 mol^−1·L·cm^−1 or less, or 0.1 mol^−1·L·cm^−1 or less. The lower limit of the molar absorption coefficient of the compound A is not particularly limited and is, for example, 0.00001 mol^−1·L·cm^−1. The molar absorption coefficient can be measured by, for example, a method in accordance with the provision of Japanese Industrial Standards (JIS) K0115:2004. The measurement of molar absorption coefficient uses a light source that irradiates light with a photon density to hardly cause two-photon absorption by the compound A. Furthermore, in the measurement of molar absorption coefficient, the concentration of the compound A is adjusted to 100 mmol/L or more and 500 mmol/L or less. This concentration is very high compared to the concentration in a measurement test of the molar absorption coefficient of a light absorption peak. The molar absorption coefficient can be used as an index of one-photon absorption.
The compounds of Examples and Comparative Examples were measured for the molar absorption coefficient by a method in accordance with the provision of JIS K0115:2004. Specifically, first, as a measurement sample, a solution in which a compound was dissolved in a solvent was prepared. The concentration of the compound in the solution was appropriately adjusted within a range of 100 mmol/L or more and 500 mmol/L or less according to the absorbance at a wavelength of 405 nm of the compound as the target for measurement. Then, the absorption spectrum of the measurement sample was measured. The absorbance at a wavelength of 405 nm was read from the obtained spectrum. The molar absorption coefficient was calculated based on the concentration of the compound in the measurement sample and the optical path length of the cell used for the measurement. As described above, the molar absorption coefficients of the compounds of Examples 1 and 2 and the compounds of Comparative Examples 1 and 4 to 6 were measured.

[3] = Measurement of fluorescence internal quantum yield (absolute PL quantum yield measuring apparatus); settings: for Fluorescence quantum yield Φf: in chloroform or tetrahydrofuran, excitation at one-photon absorption peak, measured 350-650 nm; for Fluorescence property: stated in words
Text: The compound A also tends to emit fluorescent light. The wavelength of fluorescent light emitted by the compound A may be 405 nm or more and 660 nm or less and, in some cases, may be 300 nm or more and 650 nm or less. The quantum yield Φf of fluorescence in the compound A may be 0.05 or more, 0.1 or more, or 0.5 or more. The upper limit of the quantum yield Φf of fluorescence of the compound A is not particularly limited and is, for example, 0.99. In the present specification, the “quantum yield” specifically means internal quantum yield. The quantum yield of fluorescence can be measured by, for example, a commercially available absolute PL quantum yield measuring apparatus.
The compounds of Examples and Comparative Examples were measured for fluorescence internal quantum yield. The measurement sample was prepared by dissolving a compound in a chloroform (CLF) solvent or a tetrahydrofuran (THF) solvent. In the measurement, an absolute PL quantum yield measuring apparatus (C9920-02, manufactured by Hamamatsu Photonics K.K.) was used. The excitation wavelength was set to the peak wavelength of the one-photon absorption of the compound. The measurement wavelength was appropriately adjusted within a range of 350 nm or more and 650 nm or less so as not to overlap with the absorption wavelength band of the compound. As a reference, the solvent used for dissolving the compound was used. As described above, the fluorescence quantum yields of the compounds of Examples 1 and 2 and the compounds of Comparative Examples 1 and 4 to 6 were measured.

[4] = Solubility in chloroform; settings: chloroform as solvent
Text: Unsubstituted truxene is a hydrocarbon compound that is nonpolar and has a high planarity. Unsubstituted truxene corresponds to the compound of the above formula (1) in which R^1 to R^6 are hydrogen atoms. In the present specification, the unsubstituted truxene may be simply called truxene. In truxene, […] stacking of the molecules is likely to occur, and the solubility in a solvent or resin monomer tends to be low. For example, when chloroform is used as the solvent, the solubility of truxene is about several mmol/L. When the concentration of truxene in a material is high, truxene molecules come close to each other and are assembled in various forms. Consequently, multiple new levels are formed at positions with energies lower than the lowest one-photon-allowed state of truxene itself. Accordingly, tailing of a peak derived from one-photon absorption can be verified by measuring the one-photon absorption spectrum of the material including truxene at a high concentration. In contrast, in the compound A represented by the formula (1) in which R^1 to R^6 are hydrocarbon groups, it tends to suppress the formation of assembly of compound molecules without substantially changing the size of the π C electron conjugated system of truxene. […]

[5] = Stability for light having a wavelength in a short wavelength region; settings: short wavelength region (390-420 nm); optical characteristics could not be measured
Protocol: (§1) The compounds of Examples and Comparative Examples were measured for optical characteristics by the following methods. […] Measurement of two-photon absorption cross-section

[6] = Solubility in the solvent when preparing samples for optical characteristics; settings: measurement solvent; sample could not be prepared
Protocol: as §1

Row | Two-photon absorption cross-section σ [1] [GM] | Molar absorption coefficient ε [2] [L/mol/cm] | Fluorescence quantum yield Φf [3] | further results | Compound
1 | 380 | 70 | 0.3 |  | OC(C#Cc1ccc(N(c2ccc(C#CC(O)(c3ccccc3)c3ccccc3)cc2)c2ccc(C#CC(O)(c3ccccc3)c3ccccc3)cc2)cc1)(c1ccccc1)c1ccccc1 [Comparative Example 6]
2 | 570 | 35 | 0 |  | COc1cc(-c2ccc(-c3ccc(C(=O)c4ccc(OCCOCCOC(C)=O)c(OCCOCCOC(C)=O)c4)cc3)c(OC)c2)ccc1-c1ccc(C(=O)c2ccc(OCCOCCOC(C)=O)c(OCCOCCOC(C)=O)c2)cc1 [Comparative Example 5]
3 |  | 24 | 0.1 | Ratio σ/ε ([1]; σ in GM over ε in mol^−1·L·cm^−1): 8; solubility [4]: about several | c1ccc2c(c1)Cc1c-2c2c(c3c1-c1ccccc1C3)-c1ccccc1C2 [Comparative Example 1, 10,15-dihydro-5H-diindeno[1,2-a:1′,2′-c]fluorene]
4 |  |  |  | Stability for light having a wavelength in a short wavelength region [5]: low stability | c1ccc2c(c1)[nH]c1c2c2[nH]c3ccccc3c2c2[nH]c3ccccc3c12 [Comparative Example 3, 10,15-dihydro-5H-5,10,15-triaza-diindeno[1,2-a:1′,2′-c]fluorene]
5 | 40 | 0.04 | 0.1 | Fluorescence property [3]: had a fluorescence property; solubility ([4]; organic solvent or mixture, read-out: Solubility): ≥ 100 mM | CC1(C)c2ccccc2-c2c1c1c(c3c2C(C)(C)c2ccccc2-3)C(C)(C)c2ccccc2-1 [Example 1, 10,15-dihydro-5,5,10,10,15,15-hexamethyl-5H-diindeno[1,2-a:1′,2′-c]fluorene]
6 | 43 | 0.08 | 0.1 | Fluorescence property [3]: had a fluorescence property | CCC1(CC)c2ccccc2-c2c1c1c(c3c2C(CC)(CC)c2ccccc2-3)C(CC)(CC)c2ccccc2-1 [Example 2, 10,15-dihydro-5,5,10,10,15,15-hexaethyl-5H-diindeno[1,2-a:1′,2′-c]fluorene]
7 |  |  |  | Solubility in the solvent (sample for measuring optical characteristics) [6]: low solubility | O=c1c2ccccc2c2c1c1c3ccccc3c(=O)c1c1c3ccccc3c(=O)c21 [Comparative Example 2, 5H-diindeno[1,2-a:1′,2′-c]fluorene-5,10,15-trione]
8 | 23000 | 2730 |  |  | C(#Cc1c(C#Cc2ccccc2)c(C#Cc2ccccc2)c(C#Cc2ccccc2)c(C#Cc2ccccc2)c1C#Cc1ccccc1)c1ccccc1 [Comparative Example 4, Hexakis(phenylethynyl)benzene]
